One block for each compound: values may come before it.
Key:
[1] = tested on: IL-12-induced IFN-γ secretion in NK92 cells; assay: Inhibition of IL-12-induced IFN-γ secretion in NK92 cells (ELISA); format: cell-based; conditions: Homo sapiens, IL-12, 24 hours, read-out: IC50 (NK92_IL12/IFN-γ)
Experimental: The effect of the compounds of the present invention on IFN-γ secretion induced by TYK2 in NK92 cells is evaluated by an enzyme-linked immunosorbent assay (ELISA) (Table 2).
IL-12 receptor is mainly expressed in activated T-cells, NK cells (NK92 is a NK cell line), DC cells, and B-cells. When binding to IL-12, it activates JAK2/TYK2 signal transduction pathway within NK cells and T lymphocytes, thereby inducing secretion of IFN-γ.
The experimental method is generally described below:
The 96-well plate is then incubated overnight in a 37° C./5% CO2 incubator.
The plate is centrifuged at 800 rpm for 10 minutes at room temperature and 50 μL of the supernatant from each well is transferred to another 96-well plate (Sigma, Cat No. CLS3695) coated with anti-IFN-γ antibody. The amount of IFN-γ secretion is detected following the instruction from the Human IFN-gamma DuoSet ELISA kit (R & D Systems, Cat No. DY285B). […] The percentage of inhibition on IL-12 induced IFN-γ secretion in NK-92 cells by the test compound is calculated using the following formula: […]
The IC50 value of the test compound is calculated from 8 concentration points using the XLfit software (ID Business Solutions Ltd., UK) by the following formula: […]
Where Y is the percentage of inhibition, X is the logarithm of the concentration of the test compound, Bottom is the bottom plateau value of the S-shaped curve, Top is the top plateau value of the S-shaped curve, and slope factor is the slope coefficient of the curve.

[2] = tested on: anti-CD40 antibody-induced colitis; assay: Anti-CD40 antibody-induced colitis animal model; format: in vivo, CB17-Scid mice; conditions: for body weight loss after treatment in anti-CD40 colitis (IBD) model: mice; for Spleen weight, Mean: Day 8; for protection from colitis (body weight loss and spleen enlargement) versus vehicle group: Compound 3 at 1.5, 5 and 15 mg/kg, reference compound at 5 mg/kg, oral twice daily
Experimental: The female CB17-Scid mice (8-10 weeks old, 18-20 g) from Beijing Vital River laboratory were randomly divided into 5 groups (n=8 per group). On Day 0, colitis was induced in mice each with a single intraperitoneal injection of 100 μg of FGK4.5 anti-CD40 mAb (BioXCell, Cat. No. EB0016-2) in PBS. […] On a daily basis, mice were weighed and monitored for signs of colitis including body weight loss and the accompanying loose stools and diarrhea. On Day 8, all animals were euthanized. Spleen tissues were collected and weighed.

[3] = In vivo rat PK determination; parameters: species or system Sprague Dawley rats; conditions: for F: PO (5 mpk) vs IV (1 mpk); for AUClast / Cmax: PO (5 mpk), n = 3
Experimental: The pharmacokinetics of Compound 3 of the present invention and the reference compound BMS-986165 were evaluated. Compound 3 has an OCD3 on a benzene ring, whereas the reference compound has an CD3 on an amide moiety. Methyl group is typically labile in vivo, subject to hydrolysis by amidase in the case of methylamide and to oxidative demethylation by CYPs in the case of methoxy and methyltriazole. Substituting methyl with tri-deuterated methyl improves the bioavailability and in vivo exposure of the compound and provides a better efficacy of the compound under the same dose.
Compound 3 and the reference compound in a 0.5 mg/mL solution containing 5% N,N-dimethylacetamide+20% solutol+75% saline were orally administered to three male Sprague Dawley rats at a dose of 5 mg/kg. Blood samples were collected at 0.25, 0.5, 1, 2, 4, 8 and 24 hours after administration. The concentrations of the compound in the plasma were quantified by LC-MS/MS using an API-4500 mass spectrometer. The limit of quantification (LOQ) of analysis was 1 ng/mL. The pharmacokinetic (PK) parameters were calculated by the non-compartmental method using WinNonlin and are present in Table 3.

[4] = In vivo rat PK determination; parameters: species or system Sprague Dawley rats; conditions: IV (1 mpk); for CL / Vss: n = 3; for T1/2: n = 3 (header span assumed)

SMILES: [2H]C([2H])([2H])NC(=O)c1nnc(NC(=O)C2CC2)cc1Nc1cccc(-c2ncn(C)n2)c1OC([2H])([2H])[2H] [Compound 4, 6-(cyclopropanecarboxamido)-4-((2-(methoxy-d3)-3-(1-methyl-1H-1,2,4-triazol-3-yl)phenyl)amino)-N-(methyl-d3)pyridazine-3-carboxamide]
IC50 [1]: 11 nM

SMILES: [2H]C([2H])([2H])n1cnc(-c2cccc(Nc3cc(NC(=O)C4CC4)nnc3C(=O)NC)c2OC)n1 [Compound 2, 6-(cyclopropanecarboxamido)-4-((2-methoxy-3-(1-(methyl-d3)-1H-1,2,4-triazol-3-yl)phenyl)amino)-N-methylpyridazine-3-carboxamide]
IC50 [1]: 13 nM
body weight loss after treatment in anti-CD40 colitis (IBD) model [2]: no significant body weight loss

IC50 [1]: 52 nM
SMILES: [2H]C([2H])([2H])NC(=O)c1nnc(NC(=O)[C@@H]2CC2(F)F)cc1Nc1cccc(-c2ncn(C)n2)c1OC [Compound 5, (S)-6-(2,2-difluorocyclopropane-1-carboxamido)-4-((2-methoxy-3-(1-methyl-1H-1,2,4-triazol-3-yl)phenyl)amino)-N-(methyl-d3)pyridazine-3-carboxamide]
body weight loss after treatment in anti-CD40 colitis (IBD) model [2]: no significant body weight loss

SMILES: [2H]C([2H])([2H])NC(=O)c1nnc(NC(=O)C2CC2)cc1Nc1cccc(-c2ncn(C)n2)c1OC [BMS-986165, reference compound]
F [3]: 46%
AUClast [3]: 2828 ng·h/mL
Cmax [3]: 632 ng/mL
CL [4]: 14 mL/min/kg
Vss [4]: 1.5 L/kg
T1/2 [4]: 3.3 h
IC50 [1]: 17 nM
Spleen weight, Mean ([2]; 5 mg/kg oral twice daily): 0.036 g
protection from colitis (body weight loss and spleen enlargement) versus vehicle group [2]: significantly protected mice from colitis

IC50 [1]: 74 nM
SMILES: [2H]C([2H])([2H])NC(=O)c1nnc(NC(=O)[C@H]2CC2(F)F)cc1Nc1cccc(-c2ncn(C)n2)c1OC [Compound 7, (R)-6-(2,2-difluorocyclopropane-1-carboxamido)-4-((2-methoxy-3-(1-methyl-1H-1,2,4-triazol-3-yl)phenyl)amino)-N-(methyl-d3)pyridazine-3-carboxamide]

SMILES: [2H]C([2H])([2H])Oc1c(Nc2cc(NC(=O)C3CC3)nnc2C(=O)NC)cccc1-c1ncn(C)n1 [Compound 3, 6-(cyclopropanecarboxamido)-4-((2-(methoxy-d3)-3-(1-methyl-1H-1,2,4-triazol-3-yl)phenyl)amino)-N-methylpyridazine-3-carboxamide]
F [3]: 92%
AUClast [3]: 6560 ng·h/mL
Cmax [3]: 971 ng/mL
in vivo exposure compared with reference compound ([3]; oral 5 mg/kg): better in vivo exposures than the reference compound
CL [4]: 12 mL/min/kg
Vss [4]: 1.1 L/kg
T1/2 [4]: 4.3 h
IC50 [1]: 14 nM
Spleen weight, Mean ([2]; 1.5 mg/kg oral twice daily): 0.060 g
Spleen weight, Mean ([2]; 5 mg/kg oral twice daily): 0.037 g
Spleen weight, Mean ([2]; 15 mg/kg oral twice daily): 0.025 g
protection from colitis (body weight loss and spleen enlargement) versus vehicle group [2]: significantly protected mice from colitis
body weight loss after treatment in anti-CD40 colitis (IBD) model [2]: no significant body weight loss

IC50 [1]: 47 nM
SMILES: CNC(=O)c1nnc(NC(=O)[C@@H]2CC2(F)F)cc1Nc1cccc(-c2ncn(C)n2)c1OC [Compound 6, (S)-6-(2,2-difluorocyclopropane-1-carboxamido)-4-((2-methoxy-3-(1-methyl-1H-1,2,4-triazol-3-yl)phenyl)amino)-N-methylpyridazine-3-carboxamide]

SMILES: [2H]C([2H])([2H])NC(=O)c1nnc(NC(=O)C2CC2)cc1Nc1cccc(-c2ncn(C([2H])([2H])[2H])n2)c1OC [Compound 1, 6-(cyclopropanecarboxamido)-4-((2-methoxy-3-(1-(methyl-d3)-1H-1,2,4-triazol-3-yl)phenyl)amino)-N-(methyl-d3)pyridazine-3-carboxamide]
IC50 [1]: 16 nM

Source: patent publication US11578058B2, “Heterocyclic compounds for inhibiting TYK2 activities” (Beijing InnoCare Pharma Tech Co., Ltd., priority 2020, dated 2023)
